US10238688B2, “Combination therapies for bladder cancer” (GENEDIA BIOTECH CO. LTD., priority 2015, dated 2019)

Columns and labels:
SCaBER = test: MTT cell survival / IC50, SCaBER squamous carcinoma cells; assay type: cell-based, human
Procedure: (§1) The clinical grade of the chemotherapeutics (NCI Dictionary of Cancer Terms) was provided by the First Affiliated Hospital of Harbin Medical University: Pirarubicin (Pi, Wanle, Shenzhen), Paclitaxel (Pa, Taiji, Sichuan), Adriamycin (Ad, Pfizer, Jiangsu), Epirubicin Hydrochloride (EH, Haizheng, Zhejiang), Hydroxycamptothecin (Hy, Lishizhen, Hubei), Cisplatin (Ci, Haosen, Jiangsu), Gemcitabine (Ge, Haosen, Jiangsu) and Mitomycin (Mi, Haizheng, Zhejiang). The drug induced cell death was determined by a thiazolyl […] (MTT, 490 nm reading) based cell proliferation assay in the cultured cells following treatment by various concentrations of drugs for 72 hours. The relative chemoresistance to each drug of all cell lines was calculated with the lowest IC50 as a reference. The overall chemoresistance of each cell line was described as “chemoresistance index”, the numerator of the total relative IC50 to all the drugs over the number of drugs to rank the overall resistance state of each cell line to the six chemotherapeutics collectively.
(§2) The relative IC50 (fold) of each drug of all nine cell lines was normalized to the lowest IC50 in the most sensitive cell line (FIG. 2G), to describe the single drug resistance of cell lines. The overall chemoresistance of each cell line, a “chemoresistance index” (the numerator of the total relative IC50 over the number of drugs) (FIG. 2G) were calculated to rank the overall resistance state of each cell line to this six chemotherapeutics.

[1] = system: nine cancer-associated signaling pathways; test: Pearson correlation of collective drug-triggered pathway activities (single drug versus EH/Ci/Mi regimen)
Excerpt: To calculate the correlation coefficients between the two cell lines, the R language statistics function “cor{stats}” was used to generate the correlation matrix between multiple cell lines.
This example then determined the correlation coefficient between the overall activity of these nine pathways and the chemoresistance state of these five cell lines. […] The overall state of activity of these pathways in each cell line are summarized (FIG. 4E) and the correlation coefficient of each pair of cell lines is calculated (FIG. 4F).

UM-UC-3 = test: MTT cell survival / IC50, UM-UC-3 cells; assay type: cell-based, human
Procedure: as §1, §2
(§3) Twenty six-drug combinations at the indicated doses were initially generated through a random number generator (using MATLAB MathWorks©, Natick, Mass., U.S.) (The upper half of Table 1). The cell survival (% over the not drug control) of treated cells was determined and then used for a calculation of the average cumulative cell survival (%, ACS: the sum of cell survival (%) per combination divided by the number of cell lines tested). ACS<30% was used to separate the effective from the not-effective combinations.

[2] = system: Cell Cycle/pRb-E2F pathway; test: Cignal Finder dual-luciferase pathway reporter, Cell Cycle/pRb-E2F; assay type: cell-based, human; conditions: for Relative activity, Cell Cycle/pRb-E2F reporter: luc/Renluc relative to negative control reporter, single drug at 4 folds vs EH/Ci/Mi combination
Procedure: (§4) The pathway analysis was performed with Qiagen's Cignal Finder Pathway Reporter Array systems according to the manufacturer's instructions. The pathway-focused dual-luciferase reporter construct was a mixture of an inducible transcription factor responsive firefly luciferase reporter and constitutively expressing renilla construct. Transcriptional response element (TRE) sequence response elements to each specific transcriptional factor triggered by the different signaling pathways are positioned before the TATA box of firefly luciferase reporter gene. The extent of activity of the reporter reflects the level of activity of the particular signaling pathway. CMV controlled renilla expression vector is co-transfected into the cell as an internal control. Non-inducible reporter construct that lacks the transcriptional factor binding sequence and could not be induced by any transcription factors is used as a negative control. Cells transfected with CMV directed firefly luciferase reporter gene serve as a positive control. Briefly, cells seeded in 6-well plates were transfected with Cignal finder pathway arrays according to the manufacturer's instructions (Qiagen). Then cells were seeded onto 96-well plates. Ci (6000 ng/mL), Mi (800 ng/mL), or EH (1000 ng/mL) and Ci/Mi/EH combination (Ci, 1500 ng/mL, Mi, 800 ng/mL and EH, 1000 ng/m L) were then added to the cells 24 h post-transfection. After 6 h of incubation with the different drugs at 37° C., cells were lysed and a dual luciferase assay (for firefly and renilla luciferase) was performed using a PromegaGloMax 20/20 illuminometer. The firefly luciferase activities were normalized over the renilla luciferase activities after background activity determined by luciferase activities of negative controls was subtracted. A triple test of cell survival under these drug doses was also performed by MTT assay following 18 h incubation at 37° C. […]

MAPK/ERK pathway = test: Cignal Finder dual-luciferase pathway reporter, MAPK/ERK; assay type: cell-based, human; conditions: for Relative activity, MAPK/ERK reporter: luc/Renluc relative to negative control reporter, single drug at 4 folds vs EH/Ci/Mi combination
Procedure: as §4

H-bc = test: MTT cell survival / IC50, H-bc cells; assay type: cell-based, human
Procedure: as §1, §2, §3

Biu87 = test: MTT cell survival / IC50, Biu87 cells; assay type: cell-based, human
Procedure: as §1, §2, §3

SMILES: COC12C(COC(N)=O)C3=C(C(=O)C(C)=C(N)C3=O)N1CC1NC12 (stereo not shown) [Mi, [6-Amino-8a-methoxy-5-methyl-4,7-dioxo-1,1a,2,4,7,8,8a,8b-octahydroazireno [2′,3′:3,4]pyrrolo[1,2-a]indol-8-yl]methyl carbamate]
- Cell survival (%) (SCaBER; Table S3, ng/ml: Pi 40, Pa 160, EH 250, Ci 1500, Mi 200, 1=Ci/Mi, 2=EH/Ci/Mi, 3=Pa/Ci/Mi, 4=Pi/Ci/Mi): 56.83%
- Single drug 4X Cell Survival (%) (SCaBER; ng/ml: EH 1000, Ci 6000, Mi 800, Pi 160, Pa 640, Ge 20, EH/Ci/Mi regimen): 41.97%
- Correlation coefficients versus EH/Ci/Mi ([1]; 5637 cells): 1
- Correlation coefficients versus EH/Ci/Mi ([1]; Biu87 cells): 0.982
- Correlation coefficients versus EH/Ci/Mi ([1]; H-bc cells): −0.2773
- Correlation coefficients versus EH/Ci/Mi ([1]; SV-HUC-1 cells): 1
- Correlation coefficients versus EH/Ci/Mi ([1]; UmUc3 cells): 0.982
- Cell survival (%) (UM-UC-3; UM-UC-3, Table S3, ng/ml: Pi 40, Pa 160, EH 250, Ci 1500, Mi 200, 1=Ci/Mi, 2=EH/Ci/Mi, 3=Pa/Ci/Mi, 4=Pi/Ci/Mi): 66.2%
- Single drug 4X Cell Survival (%) (UM-UC-3; UM-UC-3, ng/ml: EH 1000, Ci 6000, Mi 800, Pi 160, Pa 640, Ge 20, EH/Ci/Mi regimen): 54.74%
- ACS (%) (UM-UC-3; UM-UC-3 cells, Table 4 (B)): 54.71%
- Cell survival 72 hours (UM-UC-3; Um-Uc-3 cells, Table 4 (A)): 54.71%
- relative drug trigged pathway activity over the no-drug level, Cell Cycle/pRb-E2F ([2]; 5637 cells): 2.64 fold
- Relative activity, Cell Cycle/pRb-E2F reporter ([2]; 5637 cells): 2.40
- digitalized pathway activity, Cell Cycle/pRb-E2F ([2]; Biu87 cells): 0 (null (0) if neither of the above holds)
- relative drug trigged pathway activity over the no-drug level, Cell Cycle/pRb-E2F ([2]; Biu87 cells): 1.46 fold
- Relative activity, Cell Cycle/pRb-E2F reporter ([2]; Biu87 cells): 0.83
- relative drug trigged pathway activity over the no-drug level, Cell Cycle/pRb-E2F ([2]; H-bc cells): 0.3 fold
- Relative activity, Cell Cycle/pRb-E2F reporter ([2]; H-bc cells): 0.92
- digitalized pathway activity, Cell Cycle/pRb-E2F ([2]; SV-HUC-1 cells): 0 (null (0) if neither of the above holds)
- relative drug trigged pathway activity over the no-drug level, Cell Cycle/pRb-E2F ([2]; SV-HUC-1 cells): 1.39 fold
- Relative activity, Cell Cycle/pRb-E2F reporter ([2]; SV-HUC-1 cells): 6.80
- Relative activity, Cell Cycle/pRb-E2F reporter ([2]; UM-UC-3 cells): 2.17
- relative drug trigged pathway activity over the no-drug level, Cell Cycle/pRb-E2F ([2]; Um-Uc-3 cells): 0.37 fold
- relative drug trigged pathway activity over the no-drug level, MAPK/ERK (MAPK/ERK pathway; 5637 cells): 3.73 fold
- Relative activity, MAPK/ERK reporter (MAPK/ERK pathway; 5637 cells): 194.59
- relative drug trigged pathway activity over the no-drug level, MAPK/ERK (MAPK/ERK pathway; Biu87 cells): 2.04 fold
- Relative activity, MAPK/ERK reporter (MAPK/ERK pathway; Biu87 cells): 1001.57
- relative drug trigged pathway activity over the no-drug level, MAPK/ERK (MAPK/ERK pathway; H-bc cells): 0.45 fold
- Relative activity, MAPK/ERK reporter (MAPK/ERK pathway; H-bc cells): 59.07
- digitalized pathway activity, MAPK/ERK (MAPK/ERK pathway; SV-HUC-1 cells): 0 (null (0) if neither of the above holds)
- relative drug trigged pathway activity over the no-drug level, MAPK/ERK (MAPK/ERK pathway; SV-HUC-1 cells): 1.42 fold
- Relative activity, MAPK/ERK reporter (MAPK/ERK pathway; SV-HUC-1 cells): 335.00
- digitalized pathway activity, MAPK/ERK (MAPK/ERK pathway; UM-UC-3 cells): 0 (null (0) if neither of the above holds)
- Relative activity, MAPK/ERK reporter (MAPK/ERK pathway; UM-UC-3 cells): 151.35
- relative drug trigged pathway activity over the no-drug level, MAPK/ERK (MAPK/ERK pathway; Um-Uc-3 cells): 1.06 fold
- Cell survival 72 hours (H-bc; H-bc cells, Table 4 (A)): 81.16%
- ACS (%) (H-bc; H-bc cells, Table 4 (B)): 81.16%
- Cell survival (%) (H-bc; H-bc, Table S3, ng/ml: Pi 40, Pa 160, EH 250, Ci 1500, Mi 200, 1=Ci/Mi, 2=EH/Ci/Mi, 3=Pa/Ci/Mi, 4=Pi/Ci/Mi): 91.67%
- Single drug 4X Cell Survival (%) (H-bc; H-bc, ng/ml: EH 1000, Ci 6000, Mi 800, Pi 160, Pa 640, Ge 20, EH/Ci/Mi regimen): 81.16%
- Cell survival (%) (Biu87; Biu87, Table S3, ng/ml: Pi 40, Pa 160, EH 250, Ci 1500, Mi 200, 1=Ci/Mi, 2=EH/Ci/Mi, 3=Pa/Ci/Mi, 4=Pi/Ci/Mi): 42.05%
- Single drug 4X Cell Survival (%) (Biu87; Biu87, ng/ml: EH 1000, Ci 6000, Mi 800, Pi 160, Pa 640, Ge 20, EH/Ci/Mi regimen): 21.74%
- Cell survival 72 hours (Biu87; Biu87 cells, Table 4 (A)): 21.74%
- ACS (%) (Biu87; Biu87 cells, Table 4 (B)): 21.74%
